# Measurements as given in PubChem BioAssay (NCI).
#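 How tested: cells in 96-well plates exposed to compound for 48 hours at five concentrations. GI50 marks 50% less growth. TGI marks complete inhibition of growth.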
# Tests used:
# Assay in all cases: growth of human tumour cells (NCI), 48 h
# SNB-19 CNS = test system: SNB-19 CNS
# BT-549 breast = test system: BT-549 breast
# RPMI-8226 leukemia = test system: RPMI-8226 leukemia
# NCI-H226 lung = test system: NCI-H226 lung
# MOLT-4 leukemia = test system: MOLT-4 leukemia
# U251 CNS = test system: U251 CNS
# HT29 colon = test system: HT29 colon
# HCT-15 colon = test system: HCT-15 colon
# PC-3 prostate = test system: PC-3 prostate
# M14 melanoma = test system: M14 melanoma
# SK-MEL-5 melanoma = test system: SK-MEL-5 melanoma
# MDA-MB-231 breast = test system: MDA-MB-231 breast
# T-47D breast = test system: T-47D breast
# EKVX NSCLC = test system: EKVX NSCLC
# SF-268 CNS = test system: SF-268 CNS
# OVCAR-4 ovarian = test system: OVCAR-4 ovarian
# SN12C renal = test system: SN12C renal
# SF-295 CNS = test system: SF-295 CNS
# MALME-3M melanoma = test system: MALME-3M melanoma
# IGROV1 ovarian = test system: IGROV1 ovarian
# HCT-116 colon = test system: HCT-116 colon
# HCC-2998 colon = test system: HCC-2998 colon
# SNB-75 CNS = test system: SNB-75 CNS
# 786-0 renal = test system: 786-0 renal
# CAKI-1 renal = test system: CAKI-1 renal
# MDA-MB-435 = test system: MDA-MB-435
# UACC-62 melanoma = test system: UACC-62 melanoma
# SR leukemia = test system: SR leukemia
# SK-MEL-2 melanoma = test system: SK-MEL-2 melanoma
# NCI-H23 lung = test system: NCI-H23 lung
# COLO 205 colon = test system: COLO 205 colon
# KM12 colon = test system: KM12 colon
# NCI/ADR-RES ovarian = test system: NCI/ADR-RES ovarian
# RXF 393 renal = test system: RXF 393 renal
# MCF7 breast = test system: MCF7 breast
# HL-60(TB) leukemia = test system: HL-60(TB) leukemia
# ACHN renal = test system: ACHN renal
# HS 578T breast = test system: HS 578T breast
# DU-145 prostate = test system: DU-145 prostate
# OVCAR-8 ovarian = test system: OVCAR-8 ovarian
# NCI-H460 lung = test system: NCI-H460 lung
# HOP-62 NSCLC = test system: HOP-62 NSCLC
# SF-539 CNS = test system: SF-539 CNS
# SK-OV-3 ovarian = test system: SK-OV-3 ovarian
# CCRF-CEM leukemia = test system: CCRF-CEM leukemia
# A498 renal = test system: A498 renal
# OVCAR-3 ovarian = test system: OVCAR-3 ovarian
# SK-MEL-28 melanoma = test system: SK-MEL-28 melanoma
# HOP-92 NSCLC = test system: HOP-92 NSCLC
# TK-10 renal = test system: TK-10 renal
# NCI-H522 lung = test system: NCI-H522 lung
# OVCAR-5 ovarian = test system: OVCAR-5 ovarian
# SW-620 colon = test system: SW-620 colon
# LOX IMVI melanoma = test system: LOX IMVI melanoma
# UACC-257 melanoma = test system: UACC-257 melanoma
smiles,measurement,setting,value
C[C@@H](O)[C@H]1C(=O)N2C(C(=O)O)=C(SCCN=CN)C[C@H]12,GI50,SNB-19 CNS,2.19 µM
same,TGI,SNB-19 CNS,8.49 µM
same,GI50,BT-549 breast,2.33 µM
same,TGI,BT-549 breast,7.6 µM
same,GI50,RPMI-8226 leukemia,1.9 µM
same,TGI,RPMI-8226 leukemia,6.71 µM
same,GI50,NCI-H226 lung,1.55 µM
same,TGI,NCI-H226 lung,3.52 µM
same,GI50,MOLT-4 leukemia,2.32 µM
same,TGI,MOLT-4 leukemia,6.26 µM
same,GI50,U251 CNS,2.34 µM
same,TGI,U251 CNS,10.9 µM
same,GI50,HT29 colon,3.1 µM
same,TGI,HT29 colon,18.3 µM
same,GI50,HCT-15 colon,2.96 µM
same,TGI,HCT-15 colon,11.1 µM
same,GI50,PC-3 prostate,2.23 µM
same,TGI,PC-3 prostate,7.27 µM
same,GI50,M14 melanoma,1.86 µM
same,TGI,M14 melanoma,3.52 µM
same,GI50,SK-MEL-5 melanoma,1.56 µM
same,TGI,SK-MEL-5 melanoma,2.93 µM
same,GI50,MDA-MB-231 breast,2.16 µM
same,TGI,MDA-MB-231 breast,8.04 µM
same,GI50,T-47D breast,2.65 µM
same,TGI,T-47D breast,9.34 µM
same,GI50,EKVX NSCLC,1.25 µM
same,TGI,EKVX NSCLC,8.61 µM
same,GI50,SF-268 CNS,1.73 µM
same,TGI,SF-268 CNS,5.36 µM
same,GI50,OVCAR-4 ovarian,2.21 µM
same,TGI,OVCAR-4 ovarian,6.41 µM
same,GI50,SN12C renal,0.971 µM
same,TGI,SN12C renal,9.47 µM
same,GI50,SF-295 CNS,2.67 µM
same,TGI,SF-295 CNS,7.5 µM
same,GI50,MALME-3M melanoma,1.69 µM
same,TGI,MALME-3M melanoma,3.33 µM
same,GI50,IGROV1 ovarian,1.47 µM
same,TGI,IGROV1 ovarian,9.06 µM
same,GI50,HCT-116 colon,1.43 µM
same,TGI,HCT-116 colon,6.04 µM
same,GI50,HCC-2998 colon,1.81 µM
same,TGI,HCC-2998 colon,3.89 µM
same,GI50,SNB-75 CNS,2.12 µM
same,TGI,SNB-75 CNS,5.1 µM
same,GI50,786-0 renal,2.98 µM
same,TGI,786-0 renal,11 µM
same,GI50,CAKI-1 renal,2.13 µM
same,TGI,CAKI-1 renal,5.39 µM
same,GI50,MDA-MB-435,2.38 µM
same,TGI,MDA-MB-435,6.01 µM
same,GI50,UACC-62 melanoma,1.72 µM
same,TGI,UACC-62 melanoma,3.33 µM
same,GI50,SR leukemia,1.56 µM
same,TGI,SR leukemia,4.94 µM
same,GI50,SK-MEL-2 melanoma,2.54 µM
same,TGI,SK-MEL-2 melanoma,7.7 µM
same,GI50,NCI-H23 lung,1.81 µM
same,TGI,NCI-H23 lung,4.78 µM
same,GI50,COLO 205 colon,1.38 µM
same,TGI,COLO 205 colon,3.22 µM
same,GI50,KM12 colon,1.48 µM
same,TGI,KM12 colon,11.4 µM
same,GI50,NCI/ADR-RES ovarian,1.85 µM
same,TGI,NCI/ADR-RES ovarian,6.22 µM
same,GI50,RXF 393 renal,1.55 µM
same,TGI,RXF 393 renal,3.58 µM
same,GI50,MCF7 breast,2.89 µM
same,TGI,MCF7 breast,11.2 µM
same,GI50,HL-60(TB) leukemia,2.45 µM
same,TGI,HL-60(TB) leukemia,6.15 µM
same,GI50,ACHN renal,1.47 µM
same,TGI,ACHN renal,5.8 µM
same,GI50,HS 578T breast,2.69 µM
same,TGI,HS 578T breast,28.3 µM
same,GI50,DU-145 prostate,2.56 µM
same,TGI,DU-145 prostate,11.7 µM
same,GI50,OVCAR-8 ovarian,1.58 µM
same,TGI,OVCAR-8 ovarian,32.5 µM
same,GI50,NCI-H460 lung,1.58 µM
same,TGI,NCI-H460 lung,5.73 µM
same,GI50,HOP-62 NSCLC,1.85 µM
same,TGI,HOP-62 NSCLC,5.82 µM
same,GI50,SF-539 CNS,2.25 µM
same,TGI,SF-539 CNS,6.35 µM
same,GI50,SK-OV-3 ovarian,1.38 µM
same,TGI,SK-OV-3 ovarian,15.8 µM
same,GI50,CCRF-CEM leukemia,1.66 µM
same,TGI,CCRF-CEM leukemia,5.73 µM
same,GI50,A498 renal,0.853 µM
same,TGI,A498 renal,2.44 µM
same,GI50,OVCAR-3 ovarian,2.95 µM
same,TGI,OVCAR-3 ovarian,84.1 µM
same,GI50,SK-MEL-28 melanoma,1.86 µM
same,TGI,SK-MEL-28 melanoma,3.69 µM
same,GI50,HOP-92 NSCLC,1.8 µM
same,TGI,HOP-92 NSCLC,5.2 µM
same,GI50,TK-10 renal,4.33 µM
same,TGI,TK-10 renal,> 100 µM
same,GI50,NCI-H522 lung,1.58 µM
same,TGI,NCI-H522 lung,4.12 µM
same,GI50,OVCAR-5 ovarian,2.91 µM
same,TGI,OVCAR-5 ovarian,9.44 µM
same,GI50,SW-620 colon,0.744 µM
same,TGI,SW-620 colon,10.4 µM
same,GI50,LOX IMVI melanoma,1.44 µM
same,TGI,LOX IMVI melanoma,3.97 µM
same,GI50,UACC-257 melanoma,1.8 µM
same,TGI,UACC-257 melanoma,3.78 µM
